Laboratory results taken from ChEMBL document CHEMBL3046558, “Effects of inositol 1,2,6-triphosphate on human liver cancer SMMC-7721 cells” (2012).
Active and inactive are the calls of the source. The rule behind the calls is not given here.

Columns and labels:
SMMC-7721 [1] = assay: Antiproliferative activity against Homo sapiens (human) SMMC7721 cells at 100 ug/ml after 72 hr by MTT assay; type: functional
SMMC-7721 [2] = assay: Antiproliferative activity against Homo sapiens (human) SMMC7721 cells at 50 ug/ml after 72 hr by MTT assay; type: functional
SMMC-7721 [3] = assay: Inhibition of PCNA expression in nucleolus of Homo sapiens (human) SMMC7721 cells […] after 48 hr by immunohistochemistry analysis; type: functional, cell-based
SMMC-7721 [4] = assay: Inhibition of AFP expression in cytoplasm of Homo sapiens (human) SMMC7721 cells […] after 48 hr by immunohistochemistry analysis; type: functional, cell-based
SMMC-7721 [5] = assay: Inhibition of AFP expression in nucleolus of Homo sapiens (human) SMMC7721 cells […] after 48 hr by immunohistochemistry analysis; type: functional, cell-based
SMMC-7721 [6] = assay: Cell cycle arrest in Homo sapiens (human) SMMC7721 cells assessed as accumulation at G2/M phase at 500 ug/ml after 3 days using PI staining by flow cytometry (Rvb =11.5 %); type: functional
SMMC-7721 [7] = assay: Cell cycle arrest in Homo sapiens (human) SMMC7721 cells assessed as accumulation at S phase at 500 ug/ml after 3 days using PI staining by flow cytometry (Rvb =49.5 %); type: functional
SMMC-7721 [8] = assay: Cell cycle arrest in Homo sapiens (human) SMMC7721 cells assessed as accumulation at G0/G1 phase at 500 ug/ml after 3 days using PI staining by flow cytometry (Rvb =39 %); type: functional
SMMC-7721 [9] = assay: Cell cycle arrest in Homo sapiens (human) SMMC7721 cells assessed as accumulation at G2/M phase at 300 ug/ml after 3 days using PI staining by flow cytometry (Rvb =11.5 %); type: functional
SMMC-7721 [10] = assay: Cell cycle arrest in Homo sapiens (human) SMMC7721 cells assessed as accumulation at S phase at 300 ug/ml after 3 days using PI staining by flow cytometry (Rvb =49.5 %); type: functional
SMMC-7721 [11] = assay: Cell cycle arrest in Homo sapiens (human) SMMC7721 cells assessed as accumulation at G2/M phase at 100 ug/ml after 3 days using PI staining by flow cytometry (Rvb =11.5 %); type: functional
SMMC-7721 [12] = assay: Cell cycle arrest in Homo sapiens (human) SMMC7721 cells assessed as accumulation at G0/G1 phase at 300 ug/ml after 3 days using PI staining by flow cytometry (Rvb =39 %); type: functional
SMMC-7721 [13] = assay: Cell cycle arrest in Homo sapiens (human) SMMC7721 cells assessed as accumulation at S phase at 100 ug/ml after 3 days using PI staining by flow cytometry (Rvb =49.5 %); type: functional
SMMC-7721 [14] = assay: Cell cycle arrest in Homo sapiens (human) SMMC7721 cells assessed as accumulation at G0/G1 phase at 100 ug/ml after 3 days using PI staining by flow cytometry (Rvb =39 %); type: functional
SMMC-7721 [15] = assay: Effect on morphology of Homo sapiens (human) SMMC7721 cells assessed as disruption of cell structure at 300 ug/ml after 48 hr using HE staining by optical microscopy; type: functional, cell-based
SMMC-7721 [16] = assay: Effect on morphology of Homo sapiens (human) SMMC7721 cells assessed as cell detachment from matrix at 300 ug/ml after 48 hr using HE staining by optical microscopy; type: functional, cell-based
SMMC-7721 [17] = assay: Antiproliferative activity against Homo sapiens (human) SMMC7721 cells after 1 to 3 days by MTT assay; type: functional, cell-based
SMMC-7721 [18] = assay: Antiproliferative activity against Homo sapiens (human) SMMC7721 cells at 50 to 700 ug/ml by MTT assay; type: functional, cell-based; settings: TDE = time-dependent effect
SMMC-7721 [19] = assay: Antiproliferative activity against Homo sapiens (human) SMMC7721 cells at 700 ug/ml after 72 hr by MTT assay; type: functional
SMMC-7721 [20] = assay: Antiproliferative activity against Homo sapiens (human) SMMC7721 cells at 500 ug/ml after 72 hr by MTT assay; type: functional
SMMC-7721 [21] = assay: Antiproliferative activity against Homo sapiens (human) SMMC7721 cells at 300 ug/ml after 72 hr by MTT assay; type: functional

## O=P(O)(O)O[C@@H]1[C@H](OP(=O)(O)O)[C@H](O)[C@@H](O)[C@H](O)[C@H]1OP(=O)(O)O [ATRINOSITOL]
SMMC-7721 [1]
  Activity: 50.85%
SMMC-7721 [2]
  Activity: 34.87%
SMMC-7721 [3]
  inhibition: Dose-dependent effect
SMMC-7721 [4]
  inhibition: Dose-dependent effect
SMMC-7721 [5]
  inhibition: Dose-dependent effect
SMMC-7721 [6]
  Activity: 19.9%
SMMC-7721 [7]
  Activity: 12.3%
SMMC-7721 [8]
  Activity: 68.1%
SMMC-7721 [9]
  Activity: 10.6%
SMMC-7721 [10]
  Activity: 30.5%
SMMC-7721 [11]
  Activity: 21.6%
SMMC-7721 [12]
  Activity: 58.9%
SMMC-7721 [13]
  Activity: 39%
SMMC-7721 [14]
  Activity: 39.4%
SMMC-7721 [15]
  Activity: Active
SMMC-7721 [16]
  Activity: Active
SMMC-7721 [17]
  Activity: Dose-dependent effect
SMMC-7721 [18]
  Activity: tde
SMMC-7721 [19]
  Activity: 79.08%
SMMC-7721 [20]
  Activity: 67.86%
SMMC-7721 [21]
  Activity: 59.52%
